Laboratory results as given in US20210038607A1, “OXADIAZOLYLTHIOPHENE DERIVATIVES USEFUL AS HISTONE DEACETYLASE INHIBITORS” (Karus Therapeutics Limited, priority 2018, published 2021).

Assays:
Human HDAC8 = target: T1, Human HDAC8 (Homo sapiens, UniProt Q9BY41); assay: HDAC8 biochemical assay, AMC-labeled peptide substrate; conditions: read-out: HDAC Isoform IC50 (nM) 8
T1 construct: full length with C-terminal His tag, MW=42.6 kDa; His (C); host or cells: baculovirus expression system
T1 sequence (Q9BY41 1-377): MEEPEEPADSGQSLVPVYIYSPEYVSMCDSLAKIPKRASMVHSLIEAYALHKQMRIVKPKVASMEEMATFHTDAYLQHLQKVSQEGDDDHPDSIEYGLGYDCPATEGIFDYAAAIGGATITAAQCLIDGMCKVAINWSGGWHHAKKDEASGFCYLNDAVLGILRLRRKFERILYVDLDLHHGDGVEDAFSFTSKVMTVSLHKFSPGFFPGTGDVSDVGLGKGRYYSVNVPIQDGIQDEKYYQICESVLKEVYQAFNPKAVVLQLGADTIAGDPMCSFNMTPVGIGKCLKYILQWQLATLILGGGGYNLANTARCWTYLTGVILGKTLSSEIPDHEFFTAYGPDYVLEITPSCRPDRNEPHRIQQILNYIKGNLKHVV
Experimental: (§1) Activity against all zinc-dependent HDACs 1 to 11 was assessed by using an acetylated AMC-labeled peptide substrate. The substrate RHKK(Ac)AMC was used for HDAC1, HDAC2, HDAC3, HDAC6 and HDAC10; the substrate used for HDAC8 was RHK(Ac)K(Ac)AMC. Activity against the class IIa HDACs (HDAC4, 5, 7, 9) and HDAC11 was determined using a class IIa-specific substrate, BOC-Lys(trifluoroacetyl)-AMC (“Trifluoroacetyl Lysine”; see Lahm et al, 2007, PNAS, 104, 17335-17340). All assays were based on the AMC-labeled substrate and developer combination.
(§2) The protocol involved a two-step reaction: first, the substrate with the acetylated lysine side chain is incubated with a sample containing HDAC activity, to produce the deacetylated products, which are then digested in the second step by the addition of developer to produce the fluorescent signal proportional to the amount of deacetylated substrates.
Human HDAC8 (GenBankAccession No. NM_018486), full length with C-terminal His tag, MW=42.6 kDa, expressed in a baculovirus expression system.
(§3) Assay Buffer: 50 mM Tris-HCl, pH8.0, 137 mM NaCl, 2.7 mM KCl, 1 mM MgC2. Before use, 1 mg/mL BSA and DMSO are added.
HDAC8: 1 ng/ul HDAC8 and 100 µM HDAC8 substrate are in the reaction buffer with 1% DMSO final. Incubate for 2 hours at 30° C.
(§4) Stage 1: Deacetylation of substrate by incubation of HDAC enzymes with compounds
(§5) Stage 2: Development by addition of Developer to digest the deacetylated substrate, and generate the fluorescent colour; Detection: 360/460 Ex/Em

Human HDAC10 = target: T2, Human HDAC10 (Homo sapiens, UniProt Q969S8); assay: HDAC10 biochemical assay, AMC-labeled peptide substrate; conditions: read-out: HDAC Isoform IC50 (nM) 10
T2 construct: Human HDAC10 (a.a. 1-481); GST (N); His (C); host or cells: baculovirus expression system
T2 sequence (Q969S8 1-481): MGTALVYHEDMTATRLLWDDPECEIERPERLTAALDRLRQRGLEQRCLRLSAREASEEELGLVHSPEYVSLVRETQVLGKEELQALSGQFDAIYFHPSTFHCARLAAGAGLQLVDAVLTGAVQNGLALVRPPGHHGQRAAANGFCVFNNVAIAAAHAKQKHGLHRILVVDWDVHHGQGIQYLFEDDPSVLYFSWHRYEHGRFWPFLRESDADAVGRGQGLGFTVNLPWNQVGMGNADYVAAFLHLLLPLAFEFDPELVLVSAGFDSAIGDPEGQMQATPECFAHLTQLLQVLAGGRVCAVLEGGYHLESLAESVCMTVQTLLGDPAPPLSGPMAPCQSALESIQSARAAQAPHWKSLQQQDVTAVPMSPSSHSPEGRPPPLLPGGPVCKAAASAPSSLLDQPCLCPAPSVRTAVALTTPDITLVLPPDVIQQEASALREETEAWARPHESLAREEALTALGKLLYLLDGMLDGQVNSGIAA
Experimental: as §1, §2
Human HDAC10 (a.a. 1-481), GenBank Accession No. NM_032019 with N-terminal GST tag and C-terminal His tag, MW=78 kDa, expressed in baculovirus expression system.
as §3
HDAC10: 12 ng/ul HDAC10 and 50 μM HDAC substrate are in the reaction buffer with 1% DMSO final. Incubate for 2 hours at 30° C.
as §4, §5

Human HDAC9 = target: T3, Human HDAC9 (Homo sapiens, UniProt Q9UKV0); assay: HDAC9 biochemical assay, class IIa-specific substrate; conditions: read-out: HDAC Isoform IC50 (nM) 9
T3 construct: amino acids 604-1066 with C-terminal His tag; His (C); host or cells: baculovirus expression system
T3 sequence (Q9UKV0 604-1066 isoform Q9UKV0-5): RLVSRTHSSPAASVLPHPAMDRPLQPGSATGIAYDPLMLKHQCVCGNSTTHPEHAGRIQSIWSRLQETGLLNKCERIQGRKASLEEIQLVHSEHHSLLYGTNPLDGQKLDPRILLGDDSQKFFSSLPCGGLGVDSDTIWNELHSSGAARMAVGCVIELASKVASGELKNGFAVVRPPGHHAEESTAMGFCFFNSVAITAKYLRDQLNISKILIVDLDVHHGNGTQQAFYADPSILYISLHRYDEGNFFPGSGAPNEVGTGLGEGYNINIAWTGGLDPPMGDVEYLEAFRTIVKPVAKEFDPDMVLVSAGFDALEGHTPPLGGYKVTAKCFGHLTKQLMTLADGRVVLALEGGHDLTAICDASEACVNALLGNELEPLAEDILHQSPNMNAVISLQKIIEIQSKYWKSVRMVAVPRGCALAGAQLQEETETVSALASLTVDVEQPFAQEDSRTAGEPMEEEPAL
Method in brief: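 HDAC9 residues 604-1066 (C-terminal His tag, baculovirus-expressed) at 0.06 ng/ul with 50 μM class IIa substrate Boc-Lys(trifluoroacetyl)-AMC in Tris-HCl pH 8.0 buffer with BSA and 1% DMSO. 30 min at room temperature, then developer added; fluorescence read at 360/460 nm Ex/Em.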

SMILES	IC50 (Human HDAC8) [nM]	IC50 (Human HDAC10) [nM]	IC50 (Human HDAC9) [nM]
FC(F)c1cnnc(N(Cc2ccc(-c3noc(C(F)(F)F)n3)s2)c2cnccn2)c1 [Example GV, 5-(Difluoromethyl)-N-(pyrazin-2-yl)-N-({5-[5-(trifluoromethyl)-1,2,4-oxadiazol-3-yl]thiophen-2-yl}methyl)pyridazin-3-amine]	≤ 10000	> 10000	≤ 10000
COc1cnc(N(Cc2ccc(-c3noc(C(F)(F)F)n3)s2)c2cnccn2)cn1 [Example BI, 5-Methoxy-N-(pyrazin-2-yl)-N-({5-[5-(trifluoromethyl)-1,2,4-oxadiazol-3-yl]thiophen-2-yl}methyl)pyrazin-2-amine]	≤ 10000	> 10000	≤ 10000
FC(F)(F)c1nc(-c2ccc(CN(c3cnccn3)c3cc(N4CCCC4)cnn3)s2)no1 [Example FQ, N-(Pyrazin-2-yl)-5-(pyrrolidin-1-yl)-N-({5-[5-(trifluoromethyl)-1,2,4-oxadiazol-3-yl]thiophen-2-yl}methyl)pyridazin-3-amine]	≤ 10000	> 10000	≤ 10000
O=C(c1cnnc(N(Cc2ccc(-c3noc(C(F)(F)F)n3)s2)c2cnccn2)c1)N1C2CCC1COC2 [Example GB, 5-{3-Oxa-8-azabicyclo[3.2.1]octane-8-carbonyl}-N-(pyrazin-2-yl)-N-({5-[5-(trifluoromethyl)-1,2,4-oxadiazol-3-yl]thiophen-2-yl}methyl)pyridazin-3-amine]	≤ 10000	> 10000	≤ 10000
FC(F)(F)c1cncc(N(Cc2ccc(-c3noc(C(F)(F)F)n3)s2)c2cnccn2)n1 [Example BR, N-(Pyrazin-2-yl)-6-(trifluoromethyl)-N-({5-[5-(trifluoromethyl)-1,2,4-oxadiazol-3-yl]thiophen-2-yl}methyl)pyrazin-2-amine]	≤ 10000	> 10000	≤ 10000
CC(F)(F)c1cnnc(N(Cc2ccc(-c3noc(C(F)(F)F)n3)s2)c2cnccn2)c1 [Example GU, 5-(1,1-Difluoroethyl)-N-(pyrazin-2-yl)-N-({5-[5-(trifluoromethyl)-1,2,4-oxadiazol-3-yl]thiophen-2-yl}methyl)pyridazin-3-amine]	≤ 10000	> 10000	≤ 10000
O=C(c1cnnc(N(Cc2ccc(-c3noc(C(F)(F)F)n3)s2)c2cnccn2)c1)N1CC(O)(C(F)(F)F)C1 [Example GD, 1-{6-[(Pyrazin-2-yl)({5-[5-(trifluoromethyl)-1,2,4-oxadiazol-3-yl]thiophen-2-yl}methyl)amino]pyridazine-4-carbonyl}-3-(trifluoromethyl)azetidin-3-ol]	≤ 10000	> 10000	≤ 10000
COC1(C(F)(F)F)CN(C(=O)c2cnnc(N(Cc3ccc(-c4noc(C(F)(F)F)n4)s3)c3cnccn3)c2)C1 [Example GL, 5-[3-Methoxy-3-(trifluoromethyl)azetidine-1-carbonyl]-N-(pyrazin-2-yl)-N-({5-[5-(trifluoromethyl)-1,2,4-oxadiazol-3-yl]thiophen-2-yl}methyl)pyridazin-3-amine]	≤ 10000	> 10000	≤ 10000
O=C(c1cnnc(N(Cc2ccc(-c3noc(C(F)(F)F)n3)s2)c2cnccn2)c1)N1CC2(COC2)C1 [Example FZ, 5-{2-Oxa-6-azaspiro[3.3]heptane-6-carbonyl}-N-(pyrazin-2-yl)-N-({5-[5-(trifluoromethyl)-1,2,4-oxadiazol-3-yl]thiophen-2-yl}methyl)pyridazin-3-amine]	≤ 10000	> 10000	≤ 10000
O=C(c1ccc(N(Cc2ccc(-c3noc(C(F)(F)F)n3)s2)c2cnccn2)nn1)N1CC(O)(C(F)(F)F)C1 [Example FK, 1-{6-[(Pyrazin-2-yl)({5-[5-(trifluoromethyl)-1,2,4-oxadiazol-3-yl]thiophen-2-yl}methyl)amino]pyridazine-3-carbonyl}-3-(trifluoromethyl)azetidin-3-ol]	≤ 1000	> 10000	≤ 500
O=C(O)c1cnnc(N(Cc2ccc(-c3noc(C(F)(F)F)n3)s2)c2cnccn2)c1 [Example DW, 6-[(Pyrazin-2-yl)({5-[5-(trifluoromethyl)-1,2,4-oxadiazol-3-yl]thiophen-2-yl}methyl)amino]pyridazine-4-carboxylic acid]	≤ 10000	> 10000	≤ 10000
O=C(c1ccc(N(Cc2ccc(-c3noc(C(F)(F)F)n3)s2)c2cnccn2)nn1)N1CCC2(COC2)C1 [Example FJ, 6-{2-Oxa-6-azaspiro[3.4]octane-6-carbonyl}-N-(pyrazin-2-yl)-N-({5-[5-(trifluoromethyl)-1,2,4-oxadiazol-3-yl]thiophen-2-yl}methyl)pyridazin-3-amine]	≤ 10000	> 10000	≤ 1000
CN(C(=O)c1cnnc(N(Cc2ccc(-c3noc(C(F)(F)F)n3)s2)c2cnccn2)c1)S(C)(=O)=O [Example GE, N-Methanesulfonyl-N-methyl-6-[(pyrazin-2-yl)({5-[5-(trifluoromethyl)-1,2,4-oxadiazol-3-yl]thiophen-2-yl}methyl)amino]pyridazine-4-carboxamide]	≤ 10000	> 10000	≤ 10000
O=C(c1cnnc(N(Cc2ccc(-c3noc(C(F)(F)F)n3)s2)c2cnccn2)c1)N1CCC12COC2 [Example GF, 5-{6-Oxa-1-azaspiro[3.3]heptane-1-carbonyl}-N-(pyrazin-2-yl)-N-({5-[5-(trifluoromethyl)-1,2,4-oxadiazol-3-yl]thiophen-2-yl}methyl)pyridazin-3-amine]	≤ 10000	> 10000	≤ 10000
FC(F)(F)c1cnnc(N(Cc2ccc(-c3noc(C(F)(F)F)n3)s2)c2cc(C(F)(F)F)cnn2)c1 [Example EU, 5-(Trifluoromethyl)-N-({5-[5-(trifluoromethyl)-1,2,4-oxadiazol-3-yl]thiophen-2-yl}methyl)-N-[5-(trifluoromethyl)pyridazin-3-yl]pyridazin-3-amine]	–	–	> 10000
FC(F)(F)c1cnnc(N(Cc2ccc(-c3noc(C(F)(F)F)n3)s2)c2cccnn2)c1 [Example ER, N-(Pyridazin-3-yl)-5-(trifluoromethyl)-N-({5-[5-(trifluoromethyl)-1,2,4-oxadiazol-3-yl]thiophen-2-yl}methyl)pyridazin-3-amine]	–	–	≤ 10000
COc1cncc(N(Cc2ccc(-c3noc(C(F)(F)F)n3)s2)c2cc(C(F)(F)F)cnn2)n1 [Example EN, N-(6-Methoxypyrazin-2-yl)-5-(trifluoromethyl)-N-({5-[5-(trifluoromethyl)-1,2,4-oxadiazol-3-yl]thiophen-2-yl}methyl)pyridazin-3-amine]	–	–	> 10000
